Consider two compounds from patent publication US9248131B2, “Aquaporin modulators and methods of using them for the treatment of edema and fluid imbalance” (THE ARIZONA BOARD OF REGENTS ON BEHALF OF THE UNIVERSITY OF …, priority 2006, dated 2016).

In assay [1] the test system is astrocytes expressing AQP4. The conditions noted are these: cited from earlier work.
Another assay has as its target T1, AQP4 (Homo sapiens, UniProt P55087).
T1 construct: expressed in transfected cells; host or cells: Xenopus oocytes
The assay is described as follows: Oocyte swelling assay: water permeability (Pf) of AQP4-expressing oocytes by videomicroscopy, block or % stimulation. In kind it is cell-based. The conditions noted are these: concentrations up to 1 mM. The text has this:
A method for screening compounds for their ability to modulate aquaporin activity based on a water permeability assay in Xenopus oocytes expressing aquaporins which is used to identify, assess, and characterize compounds that either block or stimulate the aquaporin channels including AQP1, AQP4 and AQP9 channels.
Selection rationale and methodology. The ability of compounds, analogs and/or agents to block an aquaporin channel was quantified by videomicroscopic analyses of cross-sectional area of AQP-expressing oocytes as a function of time in a defined osmotic gradient, allowing the calculation of the water permeability factor (Pf), statistical evaluation of significant differences in the rate of water entry, and definition of dose response curves with IC50 values (concentration required for half-maximal block).
This compound evaluation method has been utilized with AQP1,-4,-5, and -9 channels. Observations of channel stimulation were made using the same assay method, however, the results were reported as % stimulation over control at a given concentration. […] TEA is known as a blocker of K^+ channel subtypes and nicotinic acetylcholine receptors. TEA sensitivity of AQP1 was removed by site-directed mutagenesis of tyrosine 186 to phenylalanine (Y186F) in the outer vestibule of the water pore, and confirmed that the inhibitory action of TEA is not due to nonspecific effects on endogenous channels (Brooks et al., 2000).

Assay [2] relates to Na—K—Cl cotransporter (NKCC1). The conditions noted are these: perfused kidney ascending loops of Henle; read-out: IC50 against Na—K—Cl cotransporter; cited from earlier work.

For orientation: IC50 means the point on the concentration scale where inhibition reaches its midpoint.

T1 sequence (P55087 whole entry, species assumed): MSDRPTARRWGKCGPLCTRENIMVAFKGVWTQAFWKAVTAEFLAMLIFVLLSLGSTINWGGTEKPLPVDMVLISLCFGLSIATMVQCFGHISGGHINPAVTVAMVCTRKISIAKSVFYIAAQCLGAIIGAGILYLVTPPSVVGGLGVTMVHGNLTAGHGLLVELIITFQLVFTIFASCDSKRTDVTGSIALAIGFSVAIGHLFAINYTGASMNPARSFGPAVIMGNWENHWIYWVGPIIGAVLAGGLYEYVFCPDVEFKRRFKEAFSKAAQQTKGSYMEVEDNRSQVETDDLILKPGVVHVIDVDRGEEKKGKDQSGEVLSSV

For the compound `[Pb]` [lead], the “increase in water permeability (Pf)” value in assay [1] is recorded as 40%. On to `Cc1cccc(Nc2ccncc2S(=O)(=O)NC(=O)NC(C)C)c1` [torsemide, reference compound], for which, on AQP4, the “block of swelling in AQP4-expressing oocytes” value is on record as “no blocking effect”. In addition, the IC50 in assay [2] was 300 nM.
